From US7115622B2, “Amido ether substituted imidazoquinolines” (3M Innovative Properties Company, priority 2000, dated 2006) come the findings set out here.

The subject of data set [1] is tumor necrosis factor (α). As to the kind of experiment: Cytokine Induction in Human Cells: tumor necrosis factor induction in PBMC. Type of data set: cell-based. On the set-up: key to Lowest Effective Concentration (μM) Tumor Necrosis Factor: *: no induction was seen at any of the tested concentrations; generally the highest concentration tested was 10 or 30 μM. Particulars: 18 to 24 hours incubation, tested 30–0.014 μM, ELISA or IGEN assay; for minimal effective concentration: read-out: Lowest Effective Concentration (μM) Tumor Necrosis Factor. From the text:
(§1) An in vitro human blood cell system is used to assess cytokine induction. Activity is based on the measurement of interferon and tumor necrosis factor (α) (IFN and TNF, respectively) secreted into culture media as described by Testerman et. al. In “Cytokine Induction by the Immunomodulators Imiquimod and S-27609”, Journal of Leukocyte Biology, 58, 365–372 (September, 1995).
(§2) Whole blood from healthy human donors is collected by venipuncture into EDTA vacutainer tubes. Peripheral blood mononuclear cells (PBMC) are separated from whole blood by density gradient centrifugation using Histopaque®-1077. Blood is diluted 1:1 with Dulbecco's Phosphate Buffered Saline (DPBS) or Hank's Balanced Salts Solution (HBSS). The PBMC layer is collected and washed twice with DPBS or HBSS and resuspended at 4×10^6 cells/mL in RPMI complete. The PBMC suspension is added to 48 well flat bottom sterile tissue culture plates (Costar, Cambridge, Mass. or Becton Dickinson Labware, Lincoln Park, N.J.) containing an equal volume of RPMI complete media containing test compound.
(§3) The compounds are solubilized in dimethyl sulfoxide (DMSO). The DMSO concentration should not exceed a final concentration of 1% for addition to the culture wells. The compounds are generally tested at concentrations ranging from 30–0.014 μM.
(§4) The solution of test compound is added at 60 μM to the first well containing RPMI complete and serial 3 fold dilutions are made in the wells. The PBMC suspension is then added to the wells in an equal volume, bringing the test compound concentrations to the desired range (30–0.014 μM). The final concentration of PBMC suspension is 2×10^6 cells/mL. The plates are covered with sterile plastic lids, mixed gently and then incubated for 18 to 24 hours at 37° C. in a 5% carbon dioxide atmosphere.
(§5) Following incubation the plates are centrifuged for 10 minutes at 1000 rpm (˜200×g) at 4° C. The cell-free culture supernatant is removed with a sterile polypropylene pipet and transferred to sterile polypropylene tubes. Samples are maintained at −30 to −70° C. until analysis. The samples are analyzed for interferon (α) by ELISA and for tumor necrosis factor (α) by ELISA or IGEN Assay
Tumor necrosis factor (α) (TNF) concentration is determined using ELISA kits available from Biosource International, Camarillo, Calif. Alternately, the TNF concentration can be determined by Origen® M-Series Immunoassay and read on an IGEN M-8 analyzer from IGEN International, Gaithersburg, Md. The immunoassay uses a human TNF capture and detection antibody pair from Biosource International, Camarillo, Calif. Results are expressed in pg/mL.
(§6) The table below lists the lowest concentration found to induce interferon and the lowest concentration found to induce tumor necrosis factor for each compound.

For the next data set, the system named is interferon (α). As to the kind of experiment: Cytokine Induction in Human Cells: interferon induction in PBMC. On the set-up: key to Lowest Effective Concentration (μM) Interferon: *: no induction was seen at any of the tested concentrations; generally the highest concentration tested was 10 or 30 μM. Particulars: 18 to 24 hours incubation, tested 30–0.014 μM, ELISA; for minimal effective concentration: read-out: Lowest Effective Concentration (μM) Interferon. In kind it is cell-based.
From the text: as §1, §2, §3, §4, §5
Interferon (α) and Tumor Necrosis Factor (α) Analysis by ELISA Interferon (α) concentration is determined by ELISA using a Human Multi-Species kit from PBL Biomedical Laboratories, New Brunswick, N.J. Results are expressed in pg/mL.
as §6
A general note: An ELISA detects its analyte on a solid surface through an enzyme-linked reagent.

Structures are written as SMILES.

For the molecule `COCCc1nc2c(N)nc3c(c2n1CCOCCNC(=O)c1ccccc1)CCCC3` [Example 6, N-(2-{2-[4-amino-2-(2-methoxyethyl)-6,7,8,9-tetrahydro-1H-imidazo[4,5-c]quinolin-1-yl]ethoxy}ethyl)benzamide], the melting point – broadly, the temperature, or range, at which the solid turns liquid – is 141 to 143 °C.

For `CCOCc1nc2c(N)nc3ccccc3c2n1CCOCCNC(=O)c1ccccc1` [Example 72, N-(2-{2-[4-amino-2-(ethoxymethyl)-1H-imidazo[4,5-c]quinolin-1-yl]ethoxy}ethyl)benzamide], the melting point lay within 154 to 156 °C.

Molecule `COCCc1nc2c(N)nc3c(c2n1CCOCCN(C)C(=O)c1ccccc1)CCCC3` [Example 10, N-(2-{2-[4-amino-2-(2-methoxyethyl)-6,7,8,9-tetrahydro-1H-imidazo[4,5-c]quinolin-1-yl]ethoxy}ethyl)-N-methylbenzamide] showed a melting point of 83 to 87 °C.

As to `CCc1nc2c(N)nc3ccccc3c2n1CCOCCNC(=O)c1ccccc1` [Example 71, N-{2-[2-(4-amino-2-ethyl-1H-imidazo[4,5-c]quinolin-1-yl)ethoxy]ethyl}benzamide], the melting point is 188 to 191 °C.

With `COCCc1nc2c(N)nc3ccccc3c2n1CCOCCN(C)C(=O)c1ccccc1` [Example 8, N-(2-{2-[4-amino-2-(2-methoxyethyl)-1H-imidazo[4,5-c]quinolin-1-yl]ethoxy}ethyl)-N-methylbenzamide], the melting point is 93.5 to 97 °C.

As for `COc1cccc(C(=O)NCCOCCn2cnc3c(N)nc4ccccc4c32)c1` [Example 59], the minimal effective concentration (in data set [1]; with interferon (α)) was 10 µM throughout.

The molecule `COCCc1nc2c(N)nc3ccccc3c2n1CCOCCNC(=O)c1ccccc1` [Example 4, N-(2-{2-[4-amino-2-(2-methoxyethyl)-1H-imidazo[4,5-c]quinolin-1-yl]ethoxy}ethyl)benzamide] had a melting point of 184 to 187 °C.

In the case of `CCCCc1nc2c(N)nc3ccccc3c2n1CCOCCNC(=O)c1ccc(OC)cc1` [Example 27], the minimal effective concentration in data set [1] turned out to be 10 µM; in the data set on interferon (α) it was 1 µM.

As for `CCCCC(=O)NCCOCCn1cnc2c(N)nc3ccccc3c21` [Example 52], the minimal effective concentration (in data set [1]; with interferon (α)) was 10 µM throughout.

Take `CCCCc1nc2c(N)nc3ccccc3c2n1CCOCCNC(=O)c1cccc2ccccc12` [Example 31]: the minimal effective concentration in data set [1] came out at 10 µM. The “Lowest Effective Concentration (μM) Interferon” value with interferon (α) is recorded as “*”.

Regarding `CCCCc1nc2c(N)nc3ccccc3c2n1CCOCCNC(=O)c1cccc(C(F)(F)F)c1` [Example 32], the minimal effective concentration in data set [1] was 10 µM. For the same molecule, the “Lowest Effective Concentration (μM) Interferon” value with interferon (α) was “*”.

For `CCCCc1nc2c(N)nc3ccccc3c2n1CCOCCNC(=O)[C@@H]1C[C@H]1c1ccccc1` [Example 29], the minimal effective concentration in data set [1] was 10 µM; with interferon (α) it was 1 µM.

`CCC(COCCC1CCN(C(=O)c2cccc(C(F)(F)F)c2)CC1)n1cnc2c(N)nc3ccccc3c21` (stereo not shown) [Example 50]: the minimal effective concentration (in data set [1]; in the data set with interferon (α)) was 1 µM in each case.

Turning to `CCC(COCCC1CCN(C(=O)[C@@H]2C[C@H]2c2ccccc2)CC1)n1cnc2c(N)nc3ccccc3c21` (stereo partly shown) [Example 47], in data set [1], the “Lowest Effective Concentration (μM) Tumor Necrosis Factor” value was “*”. Further, in the data set on interferon (α), the minimal effective concentration came to 1 µM.

Consider `CCC(COCCC1CCN(C(=O)c2cccnc2)CC1)n1cnc2c(N)nc3ccccc3c21` (stereo not shown) [Example 46], for which the minimal effective concentration was 1 µM in data set [1] and 0.1 µM with interferon (α).

For `CCCCc1nc2c(N)nc3ccccc3c2n1CCOCCNC(=O)CCc1ccccc1` [Example 25], the minimal effective concentration in data set [1] amounted to 10 µM; with interferon (α) it was 1 µM.

For `CCCCN(C(=O)CCCCOCCn1cnc2c(N)nc3ccccc3c21)c1ccccc1` [Example 13, 5-[2-(4-amino-1H-imidazo[4,5-c]quinolin-1-yl)ethoxy]-N-butyl-N-phenylpentanamide], the “Lowest Effective Concentration (μM) Tumor Necrosis Factor” value in data set [1] is reported as “*”. Besides, the minimal effective concentration in the data set with interferon (α) turned out to be 10 µM.

Take `CCCCc1nc2c(N)nc3ccccc3c2n1CCOCCNC(=O)C1CCCC1` [Example 17]: the minimal effective concentration (in data set [1]; in the data set on interferon (α)) was 1 µM each time.

Regarding `CCC(COCCC1CCN(C(=O)CCc2ccccc2)CC1)n1cnc2c(N)nc3ccccc3c21` (stereo not shown) [Example 43], the minimal effective concentration in data set [1] came to 10 µM; in the data set on interferon (α), 1 µM.

Turning to `Nc1nc2ccccc2c2c1ncn2CCOCCNC(=O)c1ccc2ccccc2c1` [Example 63], the minimal effective concentration in data set [1] was found to be 10 µM. Besides, the “Lowest Effective Concentration (μM) Interferon” value with interferon (α) is on record as “*”.

For `CCCCc1nc2c(N)nc3ccccc3c2n1CCOCCNC(=O)c1ccc(OC(F)(F)F)cc1` [Example 34], the minimal effective concentration in data set [1] is 10 µM. In the data set with interferon (α), the “Lowest Effective Concentration (μM) Interferon” value is “*”.

Take `Nc1nc2ccccc2c2c1ncn2CCOCCNC(=O)c1ccccc1` [Example 53]: the minimal effective concentration (in data set [1]; in the data set on interferon (α)) was 10 µM each time.

As for `Nc1nc2ccccc2c2c1ncn2CCOCCNC(=O)CCc1ccccc1` [Example 58], the minimal effective concentration (in data set [1]; in the data set with interferon (α)) was 10 µM throughout.
